In paper PMC10745061 (Marine Drugs, 2023):
Entries after “also recorded” stand apart in the source; their conditions may differ. Like-named read-outs stand apart in the source and are kept apart here. Where a SMILES comes first, the peptide text is derived from it. Bridges are numbered along the chain shown (N, C = ends).

Experiments:
Escherichia coli ML-35p = settings: salt-containing MHB supplemented with 5% FBS, compared with no FBS
Text: (§1) The results were expressed as the median values determined on the basis of at least three independent experiments performed in triplicate.

[1] = tested on: E. coli ML-35p cytoplasmic membrane; assay: Cytoplasmic membrane permeabilization, ONPG hydrolysis; type: cell-based, Escherichia coli; settings: at concentrations ≥ MIC values, PBS, 37 °C, ONPG 2.5 mM, OD405
Description: Cationic AMPs perform their antibacterial function by damaging membrane integrity and/or specifically inhibiting intracellular processes. In this study, an effect of the obtained peptides on bacterial cytoplasmic membrane integrity was analyzed with the use of E. coli ML-35p, the strain constitutively expressing β-galactosidase and lacking the functional lactose permease which is necessary for the uptake of o-nitrophenyl-β-D-galactoside (ONPG). When β-galactosidase cleaves ONPG, β-D-galactose and o-nitrophenol are released. The latter is a chromogenic product with absorbance at 405 nm. […] Thus, the rapid membranolytic mode of action seems to be predominant for the HfBRI-28 peptide.
Figure 4 Kinetics of changes in the E. coli ML35p cytoplasmic membrane permeability measured with the use of ONPG (OD405) hydrolysis caused by the examined peptides. Peptide concentrations (μM) are presented within the dashed box. […]
To examine the ability of the peptides to affect the barrier function of inner membrane of Gram-negative bacteria, we used the E. coli ML-35p strain constitutively expressing cytoplasmic β-galactosidase but lacking lactose permease. The state of the E. coli ML-35p cytoplasmic membrane was assessed based on its permeability to chromogenic marker o-nitrophenyl-β-D-galactopyranoside (ONPG, AppliChem), which is the β-galactosidase substrate. […]

RP-HPLC retention time = type: physicochemical; settings: semi-preparative RP-HPLC, C18 column, linear gradient 5 to 80% (v/v) acetonitrile in water with 0.1% TFA within 50 min
Description: Figure 2 Structure analysis of the novel BRICHOS-related peptides HfBRI-25 and HfBRI-28. (A) Characteristics of the obtained peptides. ^1 Mean Kyte–Doolittle hydrophobicity index (GRAVY) was calculated using the Expasy ProtParam tool. The maximum and minimum values of this index are +4.5 and −4.5 for poly-Ile and poly-Arg sequences, respectively. ^2 Percentage of hydrophobic amino acids was calculated using the APD3 database. ^3 Retention times were measured using semi-preparative reversed-phase high-performance liquid chromatography (RP-HPLC) on a C18 column with a linear gradient from 5 to 80% (v/v) acetonitrile in water containing 0.1% trifluoroacetic acid (TFA) within 50 min. ^4 Molecular masses were calculated by considering the presence of four Cys residues forming two disulfide bonds in the case of HfBRI-25. ^5 Molecular masses were determined experimentally using MALDI-TOF mass spectrometry. (B) Spatial structures of HfBRI-25 and HfBRI-28 were modeled using the AlphaFold algorithm (ColabFold server). The top-rated models, according to predicted local distance difference test (pLDDT) scores, were visualized by the PyMOL software. (C) The CD-spectra of the peptides in water or in the presence of 30 mM DPC micelles. (D) The CONTINLL program was used for CD data analysis. […]

[2] = tested on: human red blood cells (hRBCs); assay: Hemolysis, hemoglobin release assay; type: cell-based
Description: Figure 3 Biological activity of the peptides towards human cells. (A) Hemolytic effect on human red blood cells (hRBCs) after 2 h incubation (the hemoglobin release assay). (B) Cytotoxicity towards transformed human embryonic kidney cells (HEK293T) after 16 h incubation (the resazurin assay).
The hemolytic activity of the peptides was tested against the fresh suspension of human red blood cells (hRBC) using the hemoglobin release assay, as described previously. Two experiments were performed with hRBC from blood samples of independent donors. The quantitative data are represented as average means with standard deviations. The cytotoxic effect of the peptides was tested on transformed human embryonic kidney cells (HEK293T) using the resazurin assay. The technique is based on the ability of live cell dehydrogenases to reduce a blue resazurin to pink and fluorescent resorufin. A total of 10^4 cells per well in Dulbecco’s modified Eagle’s medium (DMEM/F12) supplemented with 10% FBS were placed into 96-well plates for 24 h in the CO2-incubator (5% CO2, 37 °C). […] Fluorescence of the formed resorufin was measured with the microplate reader AF2200 (Eppendorf, Germany) using the following channel: λExc = 535 nm, λEm = 595 nm. The fluorescence signal in the wells containing cells cultured without the peptides was assumed to represent 100% cell viability. […]

[3] = tested on: E. coli K12 SBS 1936 biofilm; assay: Effect on established biofilm, MTT assay; type: cell-based, Escherichia coli; settings: wide concentration range, 24 h pre-formed biofilm, 16 h treatment in LB, 37 °C
Description: Bacterial biofilms play an important role in UTIs, being responsible for their persistence. Therefore, the eradication of mature biofilms is an extremely challenging task because high concentrations or doses of antibacterial agents are required. Here, the ability of HfBRI-25 to disrupt established biofilms was evaluated as a number of viable bacteria in biofilm using the MTT assay. According to our previous data, E. coli K12 SBS 1936 was chosen as a strong biofilm-producer that can form it in different media.
E. coli K12 SBS1936 was grown in LB broth overnight at 37 °C and diluted in the same media to obtain 1 × 10^6 CFU/mL. A total of 100 μL of bacterial suspension was added to each well of the 96-well polystyrene plate and grown at 32 °C and 120 rpm for 24 h. The wells were washed twice with sterile water to remove non-adherent cells. In parallel, 100 μL of peptide or ciprofloxacin solutions, serially diluted in LB medium using a separate 96-well polystyrene plate, were added to each well with pre-formed biofilm and incubated at 37 °C and 180 rpm for 16 h. Biofilm viability was assessed by using the MTT reagent (Sigma). […] Absorbance of each well was measured at 570 nm. Bacterial survival was calculated as a percentage relative to samples without antimicrobial agent. […]

E. coli ATCC 25922 = settings: BALB/c mice, n = 5, i.p. infection 10^6 CFU with 2.5% mucin; 10 mg/kg i.p. at 1 h and 4 h after infection; 7 days
[4] = 25% human serum in PBS pH 7.4, 37 °C, RP-HPLC, ratio estimated from MALDI-TOF MS, two independent experiments
[5] = 25% human serum in PBS (pH 7.4) from healthy donor; settings: 37 °C, up to 24 h
trypsin = trypsin in 100 mM Tris/HCl buffer (pH 8.0); settings: 37 °C, up to 16 h
E. coli MDR CI 1057 = settings: Mueller–Hinton broth supplemented with 0.9% NaCl, 37 °C
Description: Resistance induction experiments were performed using the previously described method. Briefly, on day one, the overnight culture of wild-type bacteria was diluted with the 2× MH broth supplemented with 1.8% NaCl to reach a final cell concentration of 10^6 CFU/mL.

[6] = tested on: E. coli strains with the MCR-1-mediated colistin resistance; assay: MIC against strains with MCR-1-mediated colistin resistance; type: cell-based, Escherichia coli; settings: two strains with MCR-1-mediated colistin resistance; medium not stated
Text: as §1

With CC[C@H](C)[C@H](NC(=O)CNC(=O)[C@H](CCCCN)NC(=O)[C@H](Cc1c[nH]c2ccccc12)NC(=O)[C@@H](NC(=O)[C@H](CO)NC(=O)[C@H](CCCCN)NC(=O)[C@H](CC(C)C)NC(=O)[C@H](Cc1c[nH]c2ccccc12)NC(=O)CN)[C@@H](C)CC)C(=O)N[C@@H](CCCCN)C(=O)N[C@@H](CCCCN)C(=O)N[C@@H](C)C(=O)N[C@H](C(=O)N[C@@H](CCCCN)C(=O)N[C@@H](Cc1c[nH]c2ccccc12)C(=O)N[C@H](C(=O)N[C@@H](CC(C)C)C(=O)N[C@@H](CCCNC(=N)N)C(=O)N[C@@H](Cc1c[nH]cn1)C(=O)NCC(=O)N[C@H](C(=O)N[C@@H](Cc1ccc(O)cc1)C(=O)N[C@H](C(=O)N[C@@H](CCCNC(=N)N)C(=O)N[C@H](C(=O)N[C@H](C(=O)N[C@@H](Cc1ccccc1)C(=O)O)[C@@H](C)O)[C@@H](C)CC)C(C)C)C(C)C)C(C)C)C(C)C [HfBRI-28] (H-GWLKSIWKGIKKAVKWVLRHGVYVRITF-OH) the “Increase in MIC in the presence of serum” value (Escherichia coli ML-35p) was “four- to eight-fold”, the Membrane damage [1] was “effectively damaged membranes” and the “RP-HPLC Retention Time” value (RP-HPLC retention time) was 40.5 min. The “Hemolytic effect on human red blood cells” value [2] was “strong hemolytic effect”.
With O=C(O)c1cn(C2CC2)c2cc(N3CCNCC3)c(F)cc2c1=O [ciprofloxacin, reference compound] the “Anti-biofilm efficiency (bacterial viability inside established biofilm)” value [3] was “high efficiency at a wide concentration range” and the “Survival / therapeutic efficacy” value (E. coli ATCC 25922) was “survival of all mice”.
For CC[C@H](C)[C@@H]1NC(=O)[C@H](Cc2c[nH]c3ccccc23)NC(=O)[C@H](C(C)C)NC(=O)[C@@H]2CSSC[C@H](NC(=O)[C@H](CCCNC(=N)N)NC(=O)[C@H](CCCNC(=N)N)NC(=O)[C@H](C(C)C)NC(=O)[C@H](CCCNC(=N)N)NC(=O)[C@H](CCCNC(=N)N)NC(=O)CNC(=O)[C@H](CC(N)=O)NC(=O)[C@H](C(C)C)NC(=O)[C@H](CO)NC1=O)C(=O)N[C@@H](Cc1c[nH]c3ccccc13)C(=O)NCC(=O)N[C@@H](CO)C(=O)NCC(=O)N[C@H](C(=O)O)CSSC[C@H](NC(=O)CNC(=O)[C@@H](N)CCCNC(=N)N)C(=O)N[C@@H](Cc1ccccc1)C(=O)N2 [form “b”] (H-RGCFCVWISVNGRRVRRCWGSGC-OH; disulfide 3-23, 5-18; N-terminus and C-terminus assumed), the “a/b (%), ratio of the peptide forms in serum” value (“a/b (%), ratio” below) ([4]; time 0 h) was 0%, the “a/b (%), ratio” value ([4]; time 1 h) was 61% and the “a/b (%), ratio” value ([4]; time 3 h) was 94%. For the same compound, the “a/b (%), ratio” value ([4]; time 24 h) was 100%.
With SPRGCFCVWISVNGRRVRRCWGSGC the cleaved bond [5] was “Pro2-R3, major, 1 h” and the fragment found (trypsin) was “(4–16), major; also recorded: (19–25), major”.
In the case of polymyxin B [reference compound], the “Initial MIC value before resistance selection” value (E. coli MDR CI 1057) is reported as 0.125 µM and the “MIC against MCR-1 colistin-resistant strains” value [6] is reported as 2 µM.
